Consider 32 compounds from patent US11419875B2, “Compounds and compositions for treating hematological disorders” (Aurigene Discovery Technologies Limited, priority 2017, dated 2022).

The structures appear in SMILES notation. Bounds are passed on as bounds.

The experiment relates to MV4-11 cells. Nature of the experiment: MV4-11 CellTiter Glo cell viability/proliferation assay (Example 2). It is filed as cell-based. As to conditions: Homo sapiens, 72 hours, CellTiter Glo, read-out: MV4-11 IC50. How it is done: The CellTiter Glo Luminescent cell viability assay is a highly sensitive homogenous assay to determine the number of viable cells in culture based on quantitation of ATP levels in metabolically active cells. Addition of CTG reagent results in cell lysis and generation of a luminescent signal proportional to the amount of ATP present. The amount of ATP is proportional to the number of cells present. The luminescence is measured using a multilabel reader capable of measuring luminescence. An increase or decrease in cell numbers results in a concomitant change in luminescene level, indicating the effect of the test material on cellular proliferation.
CellTiter-Glo buffer was thawed and equilibrated to room temperature. Lyophilized CellTiter-Glo substrate was brought to room temperature. CTG reagent is prepared by mixing the CellTiter-Glo buffer (Promega Cat #G7572) into an amber bottle containing CellTiter-Glo substrate to reconstitute the lyophilized enzyme/substrate mixture. Both Buffer and the lyophilized substrate are supplied with the kit.
Add 1% Penicillin Streptomycin and 10% FBS to commercially available liquid IMDM (Iscove's Modified Dulbecco's Medium, Invitrogen Cat #12440046).
1. MV4-11 cells were counted and re-suspended to a density of 0.1×10^6 cells/ml in complete IMDM medium. 95 μL of this cell suspension was added per well of a 96-well plate (black plate with clear bottom) to seed ˜0.1×10^5 cells per well. The plates were incubated at 37° C. under a humidified atmosphere of 5% CO2 for ˜2 hours before compound addition. 2. Test compounds were dissolved in 100% DMSO to generate a 2/6/10/20 mM stock solution. A 200× concentration of the required final concentrations was prepared in DMSO. 10 μL of each concentration (200×) was then diluted in 90 μL of serum-free IMDM to prepare an intermediate concentration of 20× in medium. The DMSO concentration in this step was 10% (Intermediate dilution). 5 μL of each intermediate dilution was then added in triplicates to cells previously seeded in 96-well plate. The final DMSO concentration was 0.5% in the experimental wells. Cells treated with 0.5% DMSO served as a positive control. 100 μL of complete IMDM medium served as media blank for data analysis. 200 μL of 1×PBS was added in all corner wells of the assay plate to avoid evaporation of media in experimental wells. Plates were then incubated for 72 hours in an incubator with 5% CO2 at 37° C. 3. To terminate the assay, 50 μL of CTG reagent was added to each well and the plate was incubated at room temperature for 15 minutes on a shaker. The plate was read using the luminescence mode on a multilabel reader capable of measuring luminescence. The luminescence values were plotted against respective concentrations of the test item using GraphPad Prism to calculate the IC50 value for the test item. Percent Inhibition is Calculated as Follows: […]
Positive control wells contained cells, IMDM medium and 0.5% DMSO. Blank control wells contained IMDM medium alone.
In general terms: Cellular ATP, detected with luciferase, serves as a proxy for viable cell number.
In general, IC50 refers to the midpoint of a concentration-inhibition curve. In the case of `O=C(Nc1cc2sc(N3CCCCC3)nc2nc1N1CCCCC1)c1cccc(-c2cn[nH]c2)n1`, the IC50 lay in the range of 50 to 500 nM.
To `O=C(Nc1cc2sc(N3CCOCC3)nc2nc1C1CC1)c1cccc(N2CC[C@H](O)C2)n1` belongs > 500 nM; to `O=C(Nc1cc2oc(N3CCOCC3)nc2nc1N1CCCCC1)c1cccc(N2CC[C@H](O)C2)n1`, > 500 nM; to `C[C@H](O)Cn1cc(-c2cccc(C(=O)Nc3cc4cn(C)nc4cc3C3CC3)n2)cn1`, < 50 nM.
In the case of `N[C@H]1CCN(c2cccc(C(=O)Nc3cc4sc(N5CCCCC5)nc4nc3N3CCCCC3)n2)C1` it was > 500 nM.
In the case of `Cc1cc(-c2nc(C(=O)Nc3cc4sc(N5CCOCC5)nc4nc3C3CC3)co2)ccn1` it was < 50 nM.
On to `Nc1ccc(-c2cccc(C(=O)Nc3cc4oc(N5CCOCC5)nc4nc3C3CC3)n2)cn1`, for which the half-maximal inhibitory concentration (IC50) was > 500 nM.
In the case of `Cn1cc2cc(NC(=O)c3cccc(N4CC[C@@H](O)C4)n3)c(N3CCCCC3)cc2n1` it was > 500 nM; in that of `Cc1cc(-c2nc(C(=O)Nc3cc4sc(N5CCOCC5)nc4nc3N3CC[C@H](O)C3)co2)ccn1`, < 50 nM; in that of `Cn1cc2cc(NC(=O)c3cccc(N4CC[C@H](O)C4)n3)c(N3CCCCC3)cc2n1`, 50 to 500 nM.
For the compound `Cc1ccc(C(=O)Nc2cc3cn(C)nc3cc2N2CCCCC2)nc1-c1cnn(C)c1`, the IC50 is < 50 nM.
To `Cc1cc(-c2nc(C(=O)Nc3cc4oc(N5CCOCC5)nc4nc3N3CC[C@H](O)C3)co2)ccn1` belongs < 50 nM; to `C[C@H](O)Cn1cc(-c2cccc(C(=O)Nc3cc4sc(N5CCOCC5)nc4nc3C3CC3)n2)cn1`, < 50 nM; to `O=C(Nc1cc2sc(N3CCCCC3)nc2nc1N1CCCCC1)c1cccc(N2CC[C@H](O)C2)n1`, > 500 nM.
In the case of `C[C@H](O)Cn1cc(-c2cccc(C(=O)Nc3cc4sc(N5CCOCC5)nc4nc3N3CCCCC3)n2)cn1` it was < 50 nM.
To `N[C@H]1CCN(c2cccc(C(=O)Nc3cc4sc(N5CCOCC5)nc4nc3N3CCCCC3)n2)C1` belongs > 500 nM; to `Nc1ccc(-c2cccc(C(=O)Nc3cc4cn(C5CCCC5)nc4cc3N3CCOCC3)n2)cn1`, < 50 nM.
For `O=C(Nc1cc2sc(N3CCOCC3)nc2nc1N1CCCCC1)c1coc(N2CC[C@H](O)C2)n1`, the half-maximal inhibitory concentration (IC50) was < 50 nM.
In the case of `O=C(Nc1cc2oc(N3CCCCC3)nc2nc1N1CCCCC1)c1cccc(-c2cn[nH]c2)n1` it was < 50 nM.
On to `O=C(Nc1cc2oc(N3CCOCC3)nc2nc1N1CCCCC1)c1cccc(-c2cn[nH]c2)n1`, for which the IC50 is < 50 nM.
To `Cc1nn(C)c2cc(N3CCC(CO)CC3)c(NC(=O)c3coc(-c4ccnc(N)c4)n3)cc12` belongs < 50 nM; to `Cc1cc(-c2nc(C(=O)Nc3cnc4nc(N5CCOCC5)sc4c3)co2)ccn1`, < 50 nM.
In the case of `Nc1ccc(-c2cccc(C(=O)Nc3cnc4nc(N5CCOCC5)sc4c3)n2)cn1` it was > 500 nM; in that of `Cc1ccc(C(=O)Nc2cc3cn(C)nc3cc2N2CCCCC2)nc1-c1ccc(N)nc1`, < 50 nM; in that of `Cn1cc2cc(NC(=O)c3cccc(N4CCC(O)C4)n3)c(N3CCCCC3)cc2n1` (centres unmarked), 50 to 500 nM.
Regarding `Cc1cc(-c2nc(C(=O)Nc3cc4sc(N5CCOCC5)nc4nc3N3CC[C@@H](O)C3)co2)ccn1`, the 50% inhibitory concentration (IC50) was < 50 nM.
In the case of `Nc1ccc(-c2cccc(C(=O)Nc3cc4sc(N5CCOCC5)nc4cn3)n2)cn1` it was 50 to 500 nM; in that of `O=C(Nc1cc2sc(N3CCOCC3)nc2nc1N1CCC1)c1cccc(N2CC[C@H](O)C2)n1`, > 500 nM.
To `Cn1cc(-c2cccc(C(=O)Nc3cc4sc(N5CCCCC5)nc4nc3N3CCCCC3)n2)cn1` belongs < 50 nM; to `Cc1cc(-c2nc(C(=O)Nc3cc4oc(N5CCOCC5)nc4nc3N3CC[C@@H](O)C3)co2)ccn1` [drawing 32], < 50 nM; to `Cn1cc(-c2cccc(C(=O)Nc3cc4sc(N5CCOCC5)nc4nc3N3CCCCC3)n2)cn1`, < 50 nM.
Take `Cc1cc(-c2nc(C(=O)Nc3cc4cn(C)nc4cc3C3CC3)co2)ccn1`: the IC50 is < 50 nM.
